Test results published in patent US11273145B2, “Compositions and methods for the treatment of acid-related gastrointestinal disorders containing a dithiolane compound and a gastric acid secretion inhibitor” (priority 2014, dated 2022).

Experiments:
[1] = system: intracellular glutathione (GSH); conditions: variety of cell types and tissues; cited from earlier work
[2] = system: cell monolayer; conditions: Transwell model; cited from earlier work
[3] = molecular target: T1, Na+-dependent multivitamin transporter (Homo sapiens, UniProt Q9Y289); conditions: in vitro; cited from earlier work
T1 sequence (Q9Y289 1-635): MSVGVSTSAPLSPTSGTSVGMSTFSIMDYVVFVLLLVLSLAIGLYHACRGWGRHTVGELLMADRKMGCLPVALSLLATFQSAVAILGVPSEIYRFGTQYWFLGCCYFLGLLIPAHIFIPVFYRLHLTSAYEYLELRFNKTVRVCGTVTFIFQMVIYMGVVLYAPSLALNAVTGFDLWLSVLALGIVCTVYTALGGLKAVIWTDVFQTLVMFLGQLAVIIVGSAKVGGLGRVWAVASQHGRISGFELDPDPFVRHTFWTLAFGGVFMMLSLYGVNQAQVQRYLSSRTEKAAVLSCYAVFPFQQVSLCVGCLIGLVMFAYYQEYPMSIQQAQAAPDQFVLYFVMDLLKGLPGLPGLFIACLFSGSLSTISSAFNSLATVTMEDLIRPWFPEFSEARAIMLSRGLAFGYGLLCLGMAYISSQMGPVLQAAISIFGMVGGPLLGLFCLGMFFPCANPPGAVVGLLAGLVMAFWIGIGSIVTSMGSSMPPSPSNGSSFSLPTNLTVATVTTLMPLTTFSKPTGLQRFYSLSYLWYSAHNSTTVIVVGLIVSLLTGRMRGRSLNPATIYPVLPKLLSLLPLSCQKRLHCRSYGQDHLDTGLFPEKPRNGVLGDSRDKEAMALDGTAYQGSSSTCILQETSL

[4] = system: GERD symptoms; assay: Example 1: subject diagnosed with GERD, self-reported relief on omeprazole alone vs omeprazole plus ALA; type: in vivo, human; conditions: scale of 1-10; 40 mg of omeprazole per day
Protocol: A middle aged subject diagnosed with GERD had been on the proton pump inhibitor omeprazole for approximately three years. The subject reported taking 40 mg of omeprazole per day to control symptoms of GERD. On a scale of 1-10, subject rated the effectiveness of omeprazole at 5. […] In accordance with the present disclosure, they began taking orally 20 mg of omeprazole and 400 mg of ALA on a daily basis. […] Subject rated effectives of regime of the present disclosure a 9 on a scale from 1-10. […] Additional study was undertaken to see to what extent the combination of proton pump inhibitor and ALA of the present disclosure would have on GERD and heartburn symptoms. The person was instructed to orally take 20 mg of omeprazole and 600 mg of ALA daily for 3 months. […] Other important facts were gathered from this 3-month study. The treatment regime is fast acting and generally will halt the symptoms of even the worst scenario of acid reflux in no more than 120 minutes. Continued relief is experienced for a minimum of 24 hours with no further oral intake of the combination regime. The participant reported eating regular foods with no more modified diet schemes. Foods such as pizza, spaghetti, chili, ice cream, pastrami, taco […] like, all once avoided, are now capable of being enjoyed at meal times.

[5] = system: heartburn and GERD; assay: Conclusions on the use of the combination regimes; type: in vivo, human; conditions: Omeprazole alone

SMILES | effect on intracellular glutathione (GSH) [1] | transport across cell monolayer [2] | transporter substrate status [3] | effectiveness rating by subject [4] | time to elimination of GERD symptoms, on the average [5]
O=C(O)CCCCC1CCSS1 (stereo not drawn) [ALA, Alpha-Lipoic Acid] | markedly increases | rapidly traverses the cell monolayer in a pH-dependent manner | substrate | – | –
COc1ccc2[nH]c([S+]([O-])Cc3ncc(C)c(OC)c3C)nc2c1 (centres unmarked) [omeprazole] | – | – | – | 5 | 2 days
